Experimental data reported in patent publication US20220009894A1, “1,2,3,4-TETRAHYDROQUINOXALINE DERIVATIVE, PREPARATION METHOD THEREFOR AND APPLICATION THEREOF” (Abbisko Therapeutics Co., Ltd., priority 2019, published 2022).
Values belong to the compound of their own block, whether it stands above or below them.

Legend:
RORγt-LBD = target: T1, RORγt-LBD (Homo sapiens, UniProt P51449); assay: Time-resolved fluorescence resonance energy-transfer assay (TR-FRET), co-activator peptide recruitment; assay type: biochemical; set-up: TR-FRET Biochemical Amax: unit not given here; details: for EC50: His-RORγt-LBD 30 nM, SRC peptide 500 nM, agonistic activity, averages of one or more measurements, read-out: TR-FRET Biochemical EC50/; for TR-FRET Biochemical Amax: upper activation limit, His-RORγt-LBD, SRC peptide
T1 sequence (P51449 269-508 limits assumed): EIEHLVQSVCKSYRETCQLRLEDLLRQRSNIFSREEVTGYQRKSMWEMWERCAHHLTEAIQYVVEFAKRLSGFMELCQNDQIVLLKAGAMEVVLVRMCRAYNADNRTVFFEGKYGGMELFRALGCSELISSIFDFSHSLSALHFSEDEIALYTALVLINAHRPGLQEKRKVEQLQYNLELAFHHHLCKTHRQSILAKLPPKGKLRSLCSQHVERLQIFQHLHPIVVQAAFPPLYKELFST
Procedure, shortened: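 Eu-anti-His-labelled His-RORγt-LBD (30 nM final) recruits biotin-SRC co-activator peptide (500 nM final), detected via APC-streptavidin (5 nM) and Eu-anti-His (0.25 nM). Buffer was Tris/KCl/EDTA at pH 7.0 with 0.01% Triton X-100 and 1 mM DTT. Compounds were tested at 7 points in 5-fold dilutions. Plates were incubated overnight at 4 °C then 1 h at RT, and agonism was read as the 665/615 nm ratio.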

RORγt = target: T2, RORγt (Homo sapiens, UniProt P51449); assay: RORγt cellular reporter gene detection assay; assay type: cell-based; details: 24 hrs; for EC50: HEK 293 cells co-transfected with pFN26A-RORγt-LBD and pG14.35, in presence of antagonist Ursolic acid, top concentration 50 μM; for Cellular Reporter Assay Amax: upper activation limit, HEK 293 cells, in presence of antagonist Ursolic acid;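 as to Cellular Reporter Assay Amax: Ursolic Acid added as 5 µL of 20 µM medium per well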
T2 construct: The plasmid of pFN26A-RORγt-LBD and pG14.35 (Promega, Cat. No. E1370) were co-transfected into HEK 293 cells; expressed in transfected cells; host or cells: HEK 293 cells (Cat. No. GNHu18)
T2 sequence (P51449 269-508 limits assumed): T1 sequence (P51449 269-508 limits assumed)
Procedure, shortened: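 HEK293 cells co-transfected with RORγt-LBD and luciferase reporter plasmids, treated with Ursolic acid antagonist plus compound in 4-fold dilutions from 50 μM for 24 h at 37° C. Firefly and Renilla luminescence read; EC50 and Amax from four-parameter fit.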

- EC50 (RORγt-LBD): 11.6 nM
- TR-FRET Biochemical Amax (RORγt-LBD): 0.63
- EC50 (RORγt): 290 nM
- Cellular Reporter Assay Amax (RORγt): 3.5
SMILES: O=C(O)CN1CCN2c3ccc(-c4cc(F)cc(OC(F)F)c4)cc3N(S(=O)(=O)c3cccc(C(F)(F)F)c3)C[C@@H]2C1 [Example 9, (S)-2-(8-(3-(difluoromethoxy)-5-fluorophenyl)-6-((3-(trifluoromethyl)phenyl)sulfonyl)-1,2,4,4a,5,6-hexahydro-3H-pyrazino[1,2-a]quinoxalin-3-yl)acetic acid]

- EC50 (RORγt-LBD): 10.5 nM
- EC50 (RORγt): 375 nM
SMILES: COC(=O)CN1CCN2c3ccc(/C=C/c4c(Cl)cccc4C(F)(F)F)cc3N(S(=O)(=O)c3cccc(C(F)(F)F)c3)C[C@@H]2C1 [Example 45, methyl (S,E)-2-(8-(2-chloro-6-(trifluoromethyl)styryl)-6-((3-(trifluoromethyl)phenyl)sulfonyl)-1,2,4,4a,5,6-hexahydro-3H-pyrazino[1,2-a]quinoxalin-3-yl) acetate]

- EC50 (RORγt-LBD): 17.2 nM
- TR-FRET Biochemical Amax (RORγt-LBD): 0.79
- EC50 (RORγt): 1080 nM
- Cellular Reporter Assay Amax (RORγt): 3.8
SMILES: COC(=O)C(C)N1CCN2c3ccc(/C=C(\C)c4c(F)cccc4Cl)cc3N(S(=O)(=O)c3cccc(C(F)(F)F)c3)C[C@@H]2C1 (stereo partly drawn) [Example 23, methyl 2-((S)-8-((E)-2-(2-chloro-6-fluorophenyl)prop-1-en-1-yl)-6-((3-(trifluoromethyl)phenyl)sulfonyl)-1,2,4,4a,5,6-hexahydro-3H-pyrazino[1,2-a]quinoxalin-3-yl)propanoate]

- EC50 (RORγt-LBD): 5.2 nM
- TR-FRET Biochemical Amax (RORγt-LBD): 0.67
- EC50 (RORγt): 822 nM
- Cellular Reporter Assay Amax (RORγt): 2.4
SMILES: N#CC1(N2CCN3c4ccc(/C=C/c5c(Cl)cccc5C(F)(F)F)cc4N(S(=O)(=O)c4cccc(C(F)(F)F)c4)C[C@@H]3C2)CCC1 [Example 78, (S,E)-1-(8-(2-chloro-6-(trifluoro-methyl)styryl)-6-((3-(trifluoro-methyl)phenyl)sulfonyl)-1,2,4,4a,5,6-hexahydro-3H-pyra-zino[1,2-a]quinoxalin-3-yl)cyclo-butane-1-carbonitrile]

- EC50 (RORγt-LBD): 28.9 nM
- TR-FRET Biochemical Amax (RORγt-LBD): 0.98
- EC50 (RORγt): 979 nM
- Cellular Reporter Assay Amax (RORγt): 7.0
SMILES: O=C(O)CN1CCN2c3ccc(/C=C/c4c(Cl)cccc4C(F)(F)F)cc3N(S(=O)(=O)c3cccc(C(F)(F)F)c3)C[C@H]2C1 [Example 83, (R,E)-2-(8-(2-chloro-6-(trifluoromethyl)styryl)-6-((3-(trifluoromethyl)phenyl)sulfonyl)-1,2,4,4a,5,6-hexahydro-3H-pyrazino[1,2-a]quinoxalin-3-yl)acetic acid]

- EC50 (RORγt-LBD): 30.5 nM
- TR-FRET Biochemical Amax (RORγt-LBD): 0.89
- EC50 (RORγt): 69.7 nM
- Cellular Reporter Assay Amax (RORγt): 3.1
SMILES: CC(=O)N1CCN2c3ccc(/C=C/c4c(Cl)cccc4C(F)(F)F)cc3N(S(=O)(=O)c3cccc(C(F)(F)F)c3)C[C@@H]2C1 [Example 14, (S,E)-1-(8-(2-chloro-6-(tri-fluoromethyl)styryl)-6-((3-(trifluoromethyl)phenyl)sul-fonyl)-1,2,4,4a,5,6-hexa-hydro-3H-pyrazino[1,2-a]quinoxalin-3-yl)ethan-1-one]

Second part, the compound before the results:

SMILES: NC(=O)C1(N2CCN3c4ccc(-c5cc(F)cc(OC(F)F)c5)cc4N(S(=O)(=O)c4cccc(C(F)(F)F)c4)C[C@@H]3C2)CCC1 [Example 80, (S)-1-(8-(3-(difluoromethoxy)-5-fluorophenyl)-6-((3-(trifluoro-methyl)phenyl)sulfonyl)-1,2,4,4a,5,6-hexahydro-3H-pyrazino[1,2-a]quinoxalin-3-yl)cyclobutane-1-carboxamide]
- EC50 (RORγt-LBD): 39.3 nM
- TR-FRET Biochemical Amax (RORγt-LBD): 1.04
- EC50 (RORγt): 209 nM
- Cellular Reporter Assay Amax (RORγt): 3.4

SMILES: O=S(=O)(c1cccc(C(F)(F)F)c1)N1C[C@@H]2CCCN2c2ccc(-c3cc(F)cc(OC(F)F)c3)cc21 [Example 4, (S)-7-(3-(difluoromethoxy)-5-fluorophenyl)-5-((3-(trifluoromethyl)phenyl)sulfonyl)-1,2,3,3a,4,5-hexa-hydropyrrolo[1,2-a]qui-noxaline]
- EC50 (RORγt-LBD): 28.4 nM
- TR-FRET Biochemical Amax (RORγt-LBD): 1.25
- EC50 (RORγt): 3550 nM
- Cellular Reporter Assay Amax (RORγt): 4.9

SMILES: CC(C)(C)OC(=O)C(C)(C)N1CCN2c3ccc(-c4cc(F)cc(OC(F)F)c4)cc3N(S(=O)(=O)c3cccc(C(F)(F)F)c3)C[C@@H]2C1 [Example 51, tert-butyl (S)-2-(8-(3-(difluoromethoxy)-5-fluorophenyl)-6-((3-(trifluoromethyl)phenyl)sulfonyl)-1,2,4,4a,5,6-hexahydro-3H-pyrazino[1,2-a]quinoxalin-3-yl)-2-methylpropanoate]
- EC50 (RORγt-LBD): 48.7 nM
- TR-FRET Biochemical Amax (RORγt-LBD): 0.77
- EC50 (RORγt): 3940 nM
- Cellular Reporter Assay Amax (RORγt): 1.5

SMILES: CN1c2ccc(-c3cc(F)cc(OC(F)F)c3)cc2N(S(=O)(=O)c2cccc(C(F)(F)F)c2)C[C@@H]1CCC(=O)O [Example 5, (S)-3-(6-(3-(difluorome-thoxy)-5-fluorophenyl)-1-methyl-4-((3-(trifluorometh-yl)phenyl)sulfonyl)-1,2,3,4-tetrahydroquinoxalin-2-yl)propanoic acid]
- EC50 (RORγt-LBD): 9.68 nM
- TR-FRET Biochemical Amax (RORγt-LBD): 1.39
- EC50 (RORγt): 1030 nM
- Cellular Reporter Assay Amax (RORγt): 5.0

SMILES: CC1(C)C=C(c2ccc3c(c2)N(S(=O)(=O)c2cccc(C(F)(F)F)c2)C[C@@H]2CN(C[C@H](O)CO)CCN32)CC(C)(C)O1 [Example 42, (S)-3-((S)-8-(2,2,6,6-tetrameth-yl-3,6-dihydro-2H-pyran-4-yl)-6-((3-(trifluoromethyl)phenyl)sulfonyl)-1,2,4,4a,5,6-hexa-hydro-3H-pyrazino[1,2-a]qui-noxalin-3-yl)propane-1,2-diol]
- EC50 (RORγt-LBD): 0.84 nM
- TR-FRET Biochemical Amax (RORγt-LBD): 1.28
- EC50 (RORγt): 123 nM
- Cellular Reporter Assay Amax (RORγt): 1.4

SMILES: O=C(O)COC1CCN2c3ccc(-c4cc(F)cc(OC(F)F)c4)cc3N(S(=O)(=O)c3cccc(C(F)(F)F)c3)C[C@@H]2C1 (stereo partly drawn) [Example 106, 2-(((6aS)-3-(3-(difluoromethoxy)-5-fluorophenyl)-5-((3-(trifluoromethyl)phenyl)sulfonyl)-6,6a,7,8,9,10-hexahydro-5H-pyrido[1,2-a]quinoxalin-8-yl)oxy)acetic acid]
- EC50 (RORγt-LBD): 72.5 nM
- TR-FRET Biochemical Amax (RORγt-LBD): 0.48
- EC50 (RORγt): 704 nM
- Cellular Reporter Assay Amax (RORγt): 4.1

SMILES: O=C(O)CN1CCN2c3ccc(-c4cc(F)cc(OC(F)F)c4)cc3N(S(=O)(=O)C3C=C(C(F)(F)F)C=NC3=O)C[C@@H]2C1 (stereo partly drawn) [Example 92, 2-((4aS)-8-(3-(difluoromethoxy)-5-fluorophenyl)-6-((2-oxo-5-(trifluoromethyl)-2,3-dihydropyridin-3-yl)sulfonyl)-1,2,4,4a,5,6-hexahydro-3H-pyrazino[1,2-a]quinoxalin-3-yl)acetic acid]
- EC50 (RORγt-LBD): 848 nM
- EC50 (RORγt): ≥ 50000 nM
